Each compound was assayed on Erysiphe graminis (assay: Test for preventive effect on wheat powdery mildew). Settings: wheat (Norin-61-go) seedlings, 500 ppm active ingredient, preventive treatment; diseased area of first leaves 10 days after inoculation with Erysiphe graminis.
Assay type: in vivo
Description: Test for Preventive Effect on Wheat Powdery Mildew 9 Wheat seeds (variety: Norin-61-go) were sown in each 9 cm×9 cm polyvinyl chloride pot, grown in a greenhouse for 8 days, then treated with 10 ml per pot of aqueous solutions of wettable powders prepared in accordance with Formulation Example 2, at a concentration of 500 ppm in terms of the active ingredients and dried in the air. Then, the seedlings were inoculated with Erysiphe graminis spores by sprinkle over the plant and placed in a greenhouse of from 20 to 25° C. 10 days after the inoculation, the total diseases area of the first leaves in each pot was observed and evaluated on the basis of the standards shown in Table 67. [table]

| SMILES | Biological effectiveness |
| --- | --- |
| CCc1cc(C)nc(-n2c(C)nc3ccc(Cl)cc32)n1 [Compound I-1090] | B (Diseased area of less than 25%) |
| CNc1nc2ccccc2n1-c1nc(OC)cc(OC)n1 [Compound I-29] | B (Diseased area of less than 25%) |
| CCOc1cc(OCC)nc(-n2c(Cl)nc3ccccc32)n1 [Compound I-458] | A (No diseased area) |
| CCCOc1cc(C)nc(-n2c(Cl)nc3cc(OC)ccc32)n1 [Compound I-818] | B (Diseased area of less than 25%) |
| COc1ccnc(-n2cnc3cc(C)ccc32)n1 [Compound I-670] | B (Diseased area of less than 25%) |
| CCOc1cc(OCC)nc(-n2c(C)nc3cc(C(F)(F)F)ccc32)n1 [Compound I-502] | A (No diseased area) |
| COc1cc(OC)nc(-n2cnc3ccc(Cl)cc32)n1 [Compound I-113] | B (Diseased area of less than 25%) |
| COc1nc(OC)nc(-n2c(SC)nc3cc(Cl)ccc32)n1 [Compound I-394] | A (No diseased area) |
| COc1nc(-c2ccccc2)nc(-n2c(C(F)(F)F)nc3ccc(C)cc32)n1 [Compound I-1059] | A (No diseased area) |
| C#CCOc1cc(C)nc(-n2c(N)nc3cc(C)ccc32)n1 [Compound I-904] | B (Diseased area of less than 25%) |
| COc1cc(OC)nc(-n2c(S(C)(=O)=O)nc3cc(C)ccc32)n1 [Compound I-424] | A (No diseased area) |
| Cc1ccc2c(c1)nc(C)n2-c1nc(C)cc(C2CC2)n1 [Compound I-1103] | B (Diseased area of less than 25%) |
| COc1nc(OC)nc(-n2c(N)nc3cc(C)ccc32)n1 [Compound I-369] | B (Diseased area of less than 25%) |
| Cc1cc(C(F)(F)F)nc(-n2cnc3ccccc32)n1 [Compound I-1082] | B (Diseased area of less than 25%) |
| COc1nc(OC)nc(-n2c(C)nc3cc(I)ccc32)n1 [Compound I-217] | A (No diseased area) |
| CCCOc1cc(C)nc(-n2cnc3cc(OC)ccc32)n1 [Compound I-805] | B (Diseased area of less than 25%) |
| CCCc1cc(OC)nc(-n2c(C)nc3ccccc32)n1 [Compound I-959] | A (No diseased area) |
| CCOc1ccnc(-n2c(C(F)(F)F)nc3cc(C)ccc32)n1 [Compound I-705] | A (No diseased area) |
| CCc1nc2cc(C)ccc2n1-c1nc(OC)cc(OC)n1 [Compound I-334] | A (No diseased area) |
| COc1nc(OC)nc(-n2c(C)nc3ccc(C)cc32)n1 [Compound I-242] | A (No diseased area) |
| COc1cc(OC)nc(-n2c(CCl)nc3ccccc32)n1 [Compound I-23] | A (No diseased area) |
| CCc1cc(C)nc(-n2c(C)nc3cc(C)ccc32)n1 [Compound I-1087] | A (No diseased area) |
| COc1cc(C)nc(-n2c(C)nc3cc(Cl)ccc32)n1 [Compound I-731] | B (Diseased area of less than 25%) |
| COc1cc(OC)nc(-n2c(C(F)(F)F)nc3ccccc32)n1 [Compound I-26] | A (No diseased area) |

| SMILES | Biological effectiveness |
| --- | --- |
| CCc1cc(CC)nc(-n2c(C)nc3cc(Cl)ccc32)n1 [Compound I-1096] | A (No diseased area) |
| COc1nc(OC)nc(-n2cnc3cc(I)ccc32)n1 [Compound I-132] | A (No diseased area) |
| COc1nc(OC)nc(-n2c(C(F)(F)F)nc3cc(C(C)C)ccc32)n1 [Compound I-315] | B (Diseased area of less than 25%) |
| CCOc1cc(OCC)nc(-n2c(C)nc3ccc(C(F)(F)F)cc32)n1 [Compound I-510] | A (No diseased area) |
| COc1cc(OC)nc(-n2cnc3cc(C)ccc32)n1 [Compound I-85] | A (No diseased area) |
| CCCc1nc(OC)nc(-n2c(C)nc3cc(C)ccc32)n1 [Compound I-999] | A (No diseased area) |
| CSc1nc(C)nc(-n2c(C)nc3cc(C)ccc32)n1 [Compound I-915] | A (No diseased area) |
| COc1cc(OC)nc(-n2c(C)nc3cc(OC(F)(F)F)ccc32)n1 [Compound I-192] | B (Diseased area of less than 25%) |
| COc1ccc2c(c1)nc(C)n2-c1nc(OC)cc(OC)n1 [Compound I-189] | A (No diseased area) |
| COc1ccc2c(c1)nc(C(F)(F)F)n2-c1nc(OC)cc(OC)n1 [Compound I-300] | A (No diseased area) |
| COc1nc(OC)nc(-n2c(C(F)(F)F)nc3ccccc32)n1 [Compound I-66] | A (No diseased area) |
| CCOc1nc(OCC)nc(-n2c(C(F)(F)F)nc3cc(C)ccc32)n1 [Compound I-543] | A (No diseased area) |
| CCOc1nc(OCC)nc(-n2c(C(F)(F)F)nc3cc(OC)ccc32)n1 [Compound I-544] | A (No diseased area) |
| COc1cc(OC)nc(-n2c(C)nc3ccccc32)n1 [Compound I-6] | B (Diseased area of less than 25%) |
| CCc1nc2ccccc2n1-c1nc(OC)cc(OC)n1 [Compound I-7] | A (No diseased area) |
| C#CCOc1cc(C)nc(-n2c(C(F)(F)F)nc3cc(C)ccc32)n1 [Compound I-903] | B (Diseased area of less than 25%) |
| CCOc1nc(OCC)nc(-n2c(C)nc3cc(Cl)ccc32)n1 [Compound I-514] | A (No diseased area) |
| CCOc1nc(OCC)nc(-n2c(C)nc3cc(C)ccc32)n1 [Compound I-516] | A (No diseased area) |
| CCOc1cc(C)nc(-n2c(C)nc3ccccc32)n1 [Compound I-769] | A (No diseased area) |
| CCOc1cc(OCC)nc(-n2cnc3ccccc32)n1 [Compound I-457] | B (Diseased area of less than 25%) |
| COc1cc(OC)nc(-n2c(C)nc3cc(C#N)ccc32)n1 [Compound I-199] | B (Diseased area of less than 25%) |
| CCOc1cc(OCC)nc(-n2c(C)nc3cc(F)ccc32)n1 [Compound I-498] | A (No diseased area) |
| CCc1cc(C)nc(-n2cnc3cc(C)ccc32)n1 [Compound I-1086] | B (Diseased area of less than 25%) |
| CCCc1cc(OC)nc(-n2c(C)nc3cc(C)ccc32)n1 [Compound I-965] | A (No diseased area) |

| SMILES | Biological effectiveness |
| --- | --- |
| COc1cc(C)nc(-n2cnc3ccccc32)n1 [Compound I-726] | B (Diseased area of less than 25%) |
| COc1nc(OC)nc(-n2c(C(Cl)(Cl)Cl)nc3cc(Cl)ccc32)n1 [Compound I-405] | A (No diseased area) |
| CCOCc1nc2ccccc2n1-c1nc(OC)cc(OC)n1 [Compound I-22] | A (No diseased area) |
| CCOc1cc(OCC)nc(-n2c(S(C)(=O)=O)nc3cc(Cl)ccc32)n1 [Compound I-573] | B (Diseased area of less than 25%) |
| COc1nc(OC)nc(-n2cnc3cc(C(C)C)ccc32)n1 [Compound I-136] | B (Diseased area of less than 25%) |
| COc1nc(OC)nc(-n2c(C)nc3cc(C)ccc32)n1 [Compound I-218] | A (No diseased area) |
| COc1ccc2c(c1)ncn2-c1nc(OC)cc(OC)n1 [Compound I-88] | B (Diseased area of less than 25%) |
| CCOc1nc(OCC)nc(-n2c(Cl)nc3cc(Cl)ccc32)n1 [Compound I-534] | A (No diseased area) |
| COc1ccnc(-n2c(C)nc3ccc(Cl)cc32)n1 [Compound I-675] | B (Diseased area of less than 25%) |
| Cc1nc2cc(Cl)c(Cl)cc2n1-c1nc(Cl)cc(Cl)n1 [Compound I-1064] | B (Diseased area of less than 25%) |
| CCOc1cc(OCC)nc(-n2c(Cl)nc3cc(C)ccc32)n1 [Compound I-530] | A (No diseased area) |
| CCc1cc(CC)nc(-n2c(C)nc3cc(C)ccc32)n1 [Compound I-1095] | A (No diseased area) |
| COc1nc(OC)nc(-n2c(C)nc3cc(C(C)=O)ccc32)n1 [Compound I-234] | A (No diseased area) |
| COc1cc(OC)nc(-n2cnc3cc(C#N)ccc32)n1 [Compound I-111] | B (Diseased area of less than 25%) |
| CCOc1ccc2c(c1)nc(C(F)(F)F)n2-c1nc(OC)cc(OC)n1 [Compound I-301] | A (No diseased area) |
| COc1nc(OC)nc(-n2c(C(F)(F)F)nc3cc(OC(F)(F)F)ccc32)n1 [Compound I-321] | A (No diseased area) |
| COc1ccc2ncn(-c3nc(OC)cc(OC)n3)c2c1 [Compound I-116] | B (Diseased area of less than 25%) |
| COc1ccc2c(c1)nc(C)n2-c1nc(OC)nc(OC)n1 [Compound I-226] | A (No diseased area) |
| CCOc1cc(OCC)nc(-n2cnc3ccc(Cl)cc32)n1 [Compound I-486] | A (No diseased area) |
| COc1ccnc(-n2c(C(F)(F)F)nc3cc(C)ccc32)n1 [Compound I-683] | A (No diseased area) |
| CCOc1cc(OCC)nc(-n2cnc3cc(C)ccc32)n1 [Compound I-482] | A (No diseased area) |
| COc1ccnc(-n2c(C)nc3cc(Cl)ccc32)n1 [Compound I-671] | B (Diseased area of less than 25%) |
| COc1cc(OC)nc(-n2c(C#N)nc3cc(Cl)ccc32)n1 [Compound I-380] | A (No diseased area) |
| COCc1nc2cc(Cl)ccc2n1-c1nc(OC)nc(OC)n1 [Compound I-377] | A (No diseased area) |
